Non-standard residues stand in square brackets, D forms with d. No end group written: not given here.
What was measured:
[1] = test system: wound (skin punch, ID 12 mm); test: Murine wound model, percentage closure of the wound; format: in vivo, ICR mice; settings: topical 10 ug per mouse daily for 10 consecutive days
Text: FIGS. 1 and 2 illustrate the effect of polypeptides IK34720 (SEQ ID NO: 3—RSKAKNPLYRRRRRRRRR) (FIG. 1) and the dextro-reverso sequence IK236770 (SEQ ID NO: 4—rrrrrrrrrylpnkaksr) (FIG. 2), on wound healing over 10 days in a murine wound model in accordance with the following protocol.
Three groups of 8 male ICR mice with a mean weight of 22 g (±2 g) were used in the present study. The animals were housed in individual cages during the study. Under isoflurane gas anaesthesia, the shoulder and back region of each animal was shaved and a sharp punch (ID 12 mm) was used to induce a wound by removing the skin, including panniculus carnosus and adherent tissues on Day 1.
Following induction of the wound the polypeptides IK34720 and IK236770 were topically administered to the site of the wound at a dosage of 10 μg per animal. […] An additional group which comprised the administration of Phosphate buffered Saline (PBS) at pH 7.4 was used as a negative control.
The wound healing was analysed on Days 5, 7, 9 and 11 by tracing the periphery of the wound onto clear plastic sheets with the wound area calculated by an Image analyzer ProPlus (Media Cybernetics, Version 4.5.0.29. The percentage closure of the wound (%) was calculated. Percentage closure of the wound was determined on 5, 7, 9 and 11. ANOVA and Dunnett's test were applied to test significant significance between the treated groups (peptide and positive control groups) and the negative control group at each time point of measurement. Differences were considered statistically significant at P<0.05, and are indicated by *.

MMP1 = MMP1 expression in human skin explants after UV-irradiation (immunohistochemistry); format: cell-based; settings: 3 hrs post irradiation/treatment; Calcitriol 1 nM; IK34720 50, 250 or 500 uM; FIG. 17
Protocol: The effect of the polypeptide IK34720 (SEQ ID NO: 3) on MMP-1 activity in human skin was evaluated using the following protocol.
FIGS. 17 and 18 illustrate the effect of the polypeptide IK34720 (SEQ ID NO: 3) on MMP1 expression, in accordance with the following protocol.
Human skin (2× human explant tissues) removed at elective surgery was cleaned, dissected and cut into pieces of approx. 5mm×5mm. Each piece was placed in a well of a 96 well plate, with individual plates prepared to assess the effects 3 hrs post treatment. Skin was subjected to UV-radiation from solar-simulated UV source for 1.5 h (UVR), or non-irradiation (SHAM), and treated immediately after with a vehicle control, Calcitriol (1 nM) or the polypeptide IK34720 (SEQ ID NO: 3) at concentrations of 50 μM, 250 μM or 500 uM. In FIG. 17, IK50, IK250 and IK500 as μM concentrations refers to 15 μg, 75 μg and 150 μg of IK34720 per 120 μL culture medium/explant, respectively.
Samples harvested at 3 hrs were fixed, sectioned, immunohistochemically stained for MMP1 and quantified for MMP1 expression, by expressing epidermal area stained for MMP1 as a function of total epidermal area examined.

dermal fibroblasts = test: TBARS lipid peroxidation assay in UV irradiated dermal fibroblasts; format: cell-based; settings: highest concentration (5 μM) of peptide; FIG. 19
Protocol: The ability of the polypeptide RSKAKNPLYRRRRRRRRR to alter UV-induced oxidative damage of cell-derived lipids was examined using the TBARS thiobarbituric acid-reactive substances (TBARS) lipid peroxidation assay.
After irradiation or sham-irradiation of dermal fibroblasts, supernatants (900 μL) were collected. In brief, 90 μL of butylated hydroxytoluene (2% w/w in ethanol) was added and samples kept frozen (−20° C.) until the TBARS assay. Petri dishes were washed twice with 1 mL of HBSS, cells scraped in 600 μL of water and 60 μL of 0.5% aqueous Triton X100 added to this solution, for protein determination carried out by the Lowry method (Lowry OH et al, J. Biol. Chem., 1951, 193:265-275). TBARS were fluorometrically assayed as described (Morlière P et al, Biochim. Biophys. Acta, 1991, 1084:261-268). Briefly, thawing samples were heated in the presence of thiobarbituric acid in acidic conditions, and TBARS extracted with 1-butanol and fluorometrically quantified (λexc=515 nm and λem=550 nm). Tetraethoxypropane, which quantitatively yields the malondialdehyde-thiobarbituric acid adduct in the assay conditions, was used for calibration. TBARS values, expressed in malondialdehyde (MDA) equivalents, were normalized to the cell protein for each Petri dish. Each TBARS determination was performed in triplicate (e.g., with three Petri dishes per data point).

[2] = test system: CPDs in human skin explants; test: CPD formation in human skin explants after UV-irradiation; format: cell-based; settings: 3 hrs post irradiation/treatment; Calcitriol 1 nM; IK34720 50, 250 or 500 uM; FIG. 12
Protocol: Human skin removed at elective surgery was cleaned, dissected and cut into pieces of approx. 5 mm×5 mm. Each piece was placed in a well of a 96 well plate, with individual plates prepared to assess the effects 3 hrs post treatment. All samples were performed in triplicate for each treatment. Skin was subjected to UV-radiation from solar-simulated UV source for 1.5 h (UVR), or non-irradiation (SHAM). Given that human skin is thicker than mouse skin, human skin explants were exposed to a radiation dose three times higher than that used for mouse skin, i.e., 20 J/cm2 versus 7 J/cm2, respectively, and the output spectrum of the laboratory solar simulator has previously been reported (Rybchyn MS et al, J Invest Dermatol. 2018 May; 138(5):1146-1156) and treated immediately after with a vehicle control, Calcitriol (1 nM) or the polypeptide IK34720 (SEQ ID NO: 3) at concentrations of 50 μM, 250 μM or 500 uM.
Samples harvested at 3 hrs were fixed, section, stained and quantified as described in Example 5.

[3] = target: T1, polypeptide IK34720 (RSKAKNPLYRRRRRRRRR)
T1 chain: RSKAKNPLYRRRRRRRRR

With “rrrrrrrrrylpnkaksr ([dR][dR][dR][dR][dR][dR][dR][dR][dR][dY][dL][dP][dN][dK][dA][dK][dS][dR]; also: retro-inverso) [IK236770]” the “wound healing (wound closure % percentage)” value ([1]; day 5, vs negative control) was “statistically significant increase in wound healing”.

With `CCNC(=O)[C@H]1O[C@@H](n2cnc3c(N)nc(NCCc4ccc(CCC(=O)O)cc4)nc32)[C@H](O)[C@@H]1O` [CGS-21680, reference compound] the wound closure percentage ([1]; Day 5 to Day 11, vs negative control (PBS)) was “increase wound healing compared to the negative control”.

In the case of `C=C1/C(=C\C=C2/CCC[C@]3(C)[C@@H]([C@H](C)CCCC(C)(C)O)CC[C@@H]23)C[C@@H](O)C[C@@H]1O` [Calcitriol, 1,25-dihydroxyvitamin D3, reference compound], the “cells staining for MMP-1” value (MMP1) is reported as “fewer stained cells”, the “significant difference in TRS (TBA reactive substances) between Sham and UV irradiation” value (dermal fibroblasts) is reported as “not seen” and the “cells having CPDs (stained cells)” value [2] is reported as “fewer stained cells”.

B1: Human rheumatoid synovial fibroblast MMP-1 proenzyme, activated with APMA (protein)
chain: FVLTEGNPRWEQTHLTYRIENYTPDLPRADVDHAIEKAFQLWSNVTPLTFTKVSEGQADIMISFVRGDHRDNSPFDGPGGNLAHAFQPGPGIGGDAHFDEDERWTNNFREYNLHRVAAHELGHSLGLSHSTDIGALMYPSYTFSGDVQLAQDDIDGIQAIYGRSQNPVQPIGPQTPKACDSKLTFDAITTIRGEVMFFKDRFYMRTNPFYPEVELNFISVFWPQLPNGLEAAYEFADRDEVRFFKGNKYWAVQGQNVLHGYPKDIYSSFGFPRTVKHIDAALSEENTGKTYFFVANKYWRYDEYKRSMDPGYPKMIAHDFPGIGHKVDAVFMKDGFFYFFHGTRQYKFDPKTKRILTLQKANSWFNCRKN
In the case of B1, the “MMP-1 activity in vitro: amount of Mca-Pro-Leu-Gly formed from the fluorogenic substrate Mca-Pro-Leu-Gly-Leu-Dap-Ala-Arg, read spectrofluorimetrically at 340 nm/400 nm” value [3] is reported as “inhibits MMP-1 activation in a dose dependent manner”.

From patent publication US20220409510A1, “Polypeptides And Methods For Improving Skin Conditions” (Interk Peptide Therapeutics Limited, priority 2018, published 2022)
